{"source": "patent US20220296547A1", "about": "“METHODS AND COMPOSITIONS FOR TREATMENT OF DISEASES” (Tranexamic Technologies, LLC, priority 2020, published 2022)", "key": {"[1]": {"system": "SH-SY5Y neuroblastoma cells", "assay": "MTT cell viability assay", "format": "cell-based"}, "[2]": {"system": "HCI-001 breast cancer cells", "assay": "MTT cell viability assay", "format": "cell-based"}, "[3]": {"system": "MDA-MB-468 cells", "assay": "MTT cell viability assay (FIG. 2)", "format": "cell-based, human", "details": "MDA-MB-468, known to overexpress MYC"}, "[4]": {"system": "MCF10A cells overexpressing the MYC oncogene", "assay": "MTT assay, MYC overexpressing versus vector control cells", "format": "cell-based, human", "description": "(§1) The N-Myc-related gene c-Myc, or MYC, is frequently overexpressed in many human cancers, including breast cancer."}, "[5]": {"system": "broad array of cancer and epithelial cell lines", "assay": "MTT cell viability assays with increasing concentrations (FIG. 2, FIG. 5)", "format": "cell-based"}, "[6]": {"system": "BT474, MDA-MB-468, B16, KPPC, HMEC and HaCaT cell lines", "assay": "DNA synthesis (tritiated thymidine incorporation), cell line panel", "format": "cell-based", "details": "24 h treatment, 0 to 8%, DNA synthesis during a 3 h window"}, "[7]": {"system": "BT474 breast cancer cells", "assay": "DNA synthesis (tritiated thymidine incorporation)", "format": "cell-based", "details": "24 h treatment, 0 to 8%"}, "[8]": {"system": "human mammary epithelia cells (HMEC)", "assay": "DNA synthesis (tritiated thymidine incorporation)", "format": "cell-based", "details": "HMEC non-transformed epithelial line; 24 h"}, "[9]": {"system": "human keratinocytes (HaCaT)", "assay": "DNA synthesis (tritiated thymidine incorporation)", "format": "cell-based", "details": "HaCaT non-transformed epithelial line; 24 h"}, "[10]": {"system": "CDCP1 cleavage", "assay": "CDCP1 cleavage in MDA-MB-231 breast cancer cell extracts", "format": "cell-based", "description": "(§2) None of the treatments altered the overall pattern of protein tyrosine phosphorylation. […] Cleavage of CDCP1 may play a role in driving tumor invasion given the preferential binding of the cleaved form of CDCP1 with cell adhesion molecules such as beta1-integrin and E-cadherin."}, "[11]": {"system": "PAI-1", "assay": "PAI-1 levels in MDA-MB-231 breast cancer cell extracts", "format": "cell-based", "details": "FIG. 6", "description": "as §2"}, "[12]": {"system": "histone lysine acetylation", "assay": "Histone lysine acetylation in BT474 cells", "format": "cell-based"}, "[13]": {"system": "epidermal growth factor receptor (EGFR)", "assay": "EGFR expression (FIG. 8)", "format": "cell-based"}, "[14]": {"system": "lysine acetylation of cellular proteins", "assay": "Lysine acetylation of cellular proteins and histones (FIG. 8)", "format": "cell-based"}, "[15]": {"system": "MDA-MB-468 breast cancer cells", "assay": "Markers of the mitotic phase (cyclin B, MPM2)", "format": "cell-based, human", "details": "1%"}, "[16]": {"system": "BT474 breast cancer cells", "assay": "Markers of the mitotic phase (cyclin B, MPM2)", "format": "cell-based", "details": "1%"}, "[17]": {"system": "cell cycle", "assay": "Cell cycle study", "format": "cell-based"}, "[18]": {"system": "protein lysine acetylation in a second breast cancer cell line", "assay": "Protein lysine acetylation over time (FIG. 10)", "format": "cell-based", "details": "as early as 4 h"}, "[19]": {"system": "histone H3", "assay": "Acetylation of histone H3 on lysine 27 and lysine 9", "format": "cell-based"}, "[20]": {"system": "HCI-012/LVM2/LR10 drug-resistant, HER2+, metastatic breast cancer", "assay": "Breast tumor growth in patient-derived model", "format": "in vivo, mice", "details": "orally, once daily, 375 mg/kg"}, "[21]": {"system": "AKT in MYC overexpressing MCF10A cells", "assay": "AKT activity (phospho-AKT substrate antibody)", "format": "cell-based, human", "description": "as §1"}, "[22]": {"system": "AKT in MDA-MB-468 human breast cancer cell line", "assay": "AKT activity (phospho-AKT substrate antibody)", "format": "cell-based", "description": "as §1"}, "[23]": {"system": "S6K1 (p70s6k)", "assay": "Ribosomal S6 protein phosphorylation", "format": "cell-based", "description": "as §1"}, "[24]": {"system": "STAT3", "assay": "STAT3 phosphorylation", "format": "cell-based", "description": "as §1"}, "[25]": {"system": "MDA-MB 468 cells", "assay": "MTT assay with tranexamic acid derivatives", "format": "cell-based, human", "details": "MDA-MB 468, 72 h, increasing concentrations", "description": "MDA-MB 468 cells were plated at 6,250 cells per well in a 96-well plate and incubated overnight at 37° C. […] Cell viability was evaluated using an MTT assay."}, "[26]": {"system": "programmed death-ligand 1 (PD-L1)", "assay": "PD-L1 expression (FIG. 18)", "format": "cell-based", "details": "high concentration (2%)"}, "[27]": {"target": "T1, plasmin (Homo sapiens, UniProt P00747)", "details": "accepted value from studies; cited from earlier work"}, "[28]": {"details": "intravenous doses of 80-100 mg/kg and above, e.g. during heart surgery; cited from earlier work"}, "[29]": {"system": "non-melanoma skin cancer", "details": "mice, long-term UV irradiation; cited from earlier work"}, "[30]": {"target": "T1, plasmin", "details": "cited from earlier work"}, "[31]": {"target": "p300 acetyltransferase enzyme (Homo sapiens, UniProt Q09472)", "sequence (Q09472 whole entry)": "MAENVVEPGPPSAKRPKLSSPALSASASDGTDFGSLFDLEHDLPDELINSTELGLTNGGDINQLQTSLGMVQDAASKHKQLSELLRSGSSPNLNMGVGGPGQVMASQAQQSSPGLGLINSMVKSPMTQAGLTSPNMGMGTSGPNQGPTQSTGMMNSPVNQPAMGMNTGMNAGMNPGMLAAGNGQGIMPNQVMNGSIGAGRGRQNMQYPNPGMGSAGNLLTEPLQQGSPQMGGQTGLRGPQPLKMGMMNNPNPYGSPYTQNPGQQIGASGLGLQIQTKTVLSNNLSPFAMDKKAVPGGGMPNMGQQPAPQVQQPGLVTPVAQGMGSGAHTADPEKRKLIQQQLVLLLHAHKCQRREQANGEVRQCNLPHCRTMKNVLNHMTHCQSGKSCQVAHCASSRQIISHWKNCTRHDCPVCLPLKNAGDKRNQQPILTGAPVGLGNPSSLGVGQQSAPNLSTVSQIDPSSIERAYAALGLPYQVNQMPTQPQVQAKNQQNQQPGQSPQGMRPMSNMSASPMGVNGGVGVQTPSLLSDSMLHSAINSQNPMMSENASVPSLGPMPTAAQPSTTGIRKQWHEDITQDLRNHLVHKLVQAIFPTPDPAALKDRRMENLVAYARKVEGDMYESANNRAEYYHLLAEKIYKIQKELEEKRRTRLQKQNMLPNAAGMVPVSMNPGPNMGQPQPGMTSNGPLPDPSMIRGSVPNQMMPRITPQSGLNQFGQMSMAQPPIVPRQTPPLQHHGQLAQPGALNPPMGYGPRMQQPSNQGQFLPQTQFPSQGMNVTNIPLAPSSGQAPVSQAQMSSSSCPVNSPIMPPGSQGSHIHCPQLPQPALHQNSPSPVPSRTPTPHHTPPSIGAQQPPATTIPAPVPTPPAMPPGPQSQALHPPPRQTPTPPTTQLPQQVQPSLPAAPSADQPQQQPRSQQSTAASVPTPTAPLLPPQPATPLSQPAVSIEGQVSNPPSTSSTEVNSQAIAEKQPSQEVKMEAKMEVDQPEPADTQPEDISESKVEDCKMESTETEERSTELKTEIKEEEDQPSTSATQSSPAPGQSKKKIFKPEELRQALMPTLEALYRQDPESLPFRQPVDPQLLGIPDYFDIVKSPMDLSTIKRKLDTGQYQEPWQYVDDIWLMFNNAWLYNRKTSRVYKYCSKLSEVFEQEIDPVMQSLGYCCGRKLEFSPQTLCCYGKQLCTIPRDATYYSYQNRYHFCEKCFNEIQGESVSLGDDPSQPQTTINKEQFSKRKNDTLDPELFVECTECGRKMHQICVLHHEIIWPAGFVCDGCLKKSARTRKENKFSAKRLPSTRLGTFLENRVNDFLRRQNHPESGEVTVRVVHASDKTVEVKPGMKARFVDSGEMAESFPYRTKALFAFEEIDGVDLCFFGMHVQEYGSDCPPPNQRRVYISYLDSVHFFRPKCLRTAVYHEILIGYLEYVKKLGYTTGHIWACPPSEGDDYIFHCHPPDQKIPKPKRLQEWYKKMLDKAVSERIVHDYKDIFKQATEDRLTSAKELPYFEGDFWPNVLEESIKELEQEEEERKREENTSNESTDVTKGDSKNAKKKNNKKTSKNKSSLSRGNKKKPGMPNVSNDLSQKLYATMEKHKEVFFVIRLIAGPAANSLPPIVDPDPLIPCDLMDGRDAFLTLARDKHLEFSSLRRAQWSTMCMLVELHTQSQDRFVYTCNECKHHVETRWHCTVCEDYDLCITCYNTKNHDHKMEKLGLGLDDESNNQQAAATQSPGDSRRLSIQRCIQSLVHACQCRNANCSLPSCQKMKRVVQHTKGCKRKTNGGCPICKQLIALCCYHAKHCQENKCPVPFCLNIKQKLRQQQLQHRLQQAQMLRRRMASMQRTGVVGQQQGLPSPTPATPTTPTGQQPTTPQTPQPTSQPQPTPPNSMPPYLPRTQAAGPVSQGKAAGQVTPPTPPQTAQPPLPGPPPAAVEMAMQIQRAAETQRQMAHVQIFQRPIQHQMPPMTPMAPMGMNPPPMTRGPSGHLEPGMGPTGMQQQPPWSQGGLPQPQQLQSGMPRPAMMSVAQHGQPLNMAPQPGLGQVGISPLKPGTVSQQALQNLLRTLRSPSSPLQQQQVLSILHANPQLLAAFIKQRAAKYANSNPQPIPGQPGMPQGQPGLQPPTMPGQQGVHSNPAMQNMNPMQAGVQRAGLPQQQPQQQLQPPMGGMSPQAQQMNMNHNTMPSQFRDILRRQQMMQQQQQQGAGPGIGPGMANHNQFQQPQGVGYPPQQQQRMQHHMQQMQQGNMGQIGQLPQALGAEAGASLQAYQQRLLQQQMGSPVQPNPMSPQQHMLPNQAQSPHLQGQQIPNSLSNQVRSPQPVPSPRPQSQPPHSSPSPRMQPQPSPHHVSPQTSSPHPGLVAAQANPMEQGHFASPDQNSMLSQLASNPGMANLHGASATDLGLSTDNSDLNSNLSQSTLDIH", "assay": "p300 acetyltransferase enzyme assays (immunoblot H3K9Ac / H3K27Ac)", "details": "two sets of enzyme assays", "protocol": "This is measured by immunoblotting with antibodies that specifically recognize histone 3 (H3) acetylated (Ac) on lysine (K) number 9 or 27."}}, "note": "Entries after “also recorded” stand apart in the source; their conditions may differ."}
{"smiles": "NC[C@H]1CC[C@H](C(=O)O)CC1", "note": "[tranexamic acid]", "values": [{"measurement": "cell viability (MTT)", "setting": "[1]; SH-SY5Y neuroblastoma cells", "value": "decreased viability"}, {"measurement": "sensitivity compared to other cell lines tested (MTT)", "setting": "[1]; SH-SY5Y, N-Myc amplified / MYC overexpressed", "value": "most sensitive"}, {"measurement": "cell viability (MTT)", "setting": "[2]", "value": "decreased viability"}, {"measurement": "sensitivity compared to other cell lines tested (MTT)", "setting": "[3]", "value": "most sensitive"}, {"measurement": "sensitivity of MYC overexpressing cells versus unaltered control cells (MTT)", "setting": "[4]", "value": "significant increase in tranexamic acid sensitivity; also recorded: significantly more sensitive"}, {"measurement": "cell viability (MTT) across cell lines", "setting": "[5]", "value": "all lines are inhibited; also recorded: dose dependently suppresses the viability"}, {"measurement": "DNA synthesis / cell proliferation across cell lines", "setting": "[6]", "value": "suppresses the proliferation; also recorded: affected all the cell lines examined"}, {"measurement": "sensitivity of DNA synthesis compared to other cell lines", "setting": "[7]", "value": "most sensitive to low concentrations"}, {"measurement": "proliferation (DNA synthesis)", "setting": "[8]", "value": "affects the proliferation"}, {"measurement": "proliferation (DNA synthesis)", "setting": "[9]", "value": "affects the proliferation"}, {"measurement": "CDCP1 cleavage at lowest concentration", "setting": "[10]; 0.5%", "value": "good inhibition of CDCP1 cleavage"}, {"measurement": "CDCP1 cleavage", "setting": "[10]; MDA-MB-231 breast cancer cell extracts", "value": "blocks CDCP1 cleavage"}, {"measurement": "PAI-1 levels / expression", "setting": "[11]", "value": "without increasing PAI-1 levels"}, {"measurement": "effect on histone acetylation in presence of the histone deacetylase inhibitor SAHA", "setting": "[12]", "value": "did not overcome the effects of the histone deacetylase inhibitor SAHA"}, {"measurement": "histone lysine acetylation", "setting": "[12]; particularly at higher concentrations", "value": "suppressed histone lysine acetylation"}, {"measurement": "expression of EGFR", "setting": "[13]; FIG. 8", "value": "decreases expression"}, {"measurement": "EGFR downregulation", "setting": "[13]; FIG. 8, as worded", "value": "did not increase"}, {"measurement": "histone acetylation compared with vehicle treatment", "setting": "[14]", "value": "suppressed histone acetylation"}, {"measurement": "levels of lysine acetylation of cellular proteins", "setting": "[14]", "value": "reduces the levels of lysine acetylation"}, {"measurement": "markers of the mitotic phase of the cell cycle (cyclin B, MPM2)", "setting": "[15]", "value": "elevates markers of the mitotic phase"}, {"measurement": "markers of the mitotic phase of the cell cycle (cyclin B, MPM2)", "setting": "[16]", "value": "elevates markers of the mitotic phase"}, {"measurement": "cell cycle arrest", "setting": "[17]", "value": "causes G2/M-phase cell cycle arrest"}, {"measurement": "protein lysine acetylation", "setting": "[18]", "value": "reduces protein lysine acetylation"}, {"measurement": "acetylation of histone H3 on lysine 9", "setting": "[19]; carried out by other enzymes", "value": "not on lysine 9"}, {"measurement": "acetylation of histone H3 on lysine 27", "setting": "[19]; carried out by p300 and CBP", "value": "blocks acetylation"}, {"measurement": "tumor growth versus vehicle (water)", "setting": "[20]", "value": "suppresses tumor growth more effectively than a vehicle"}, {"measurement": "AKT activity", "setting": "[21]", "value": "suppressed AKT activity"}, {"measurement": "AKT activity", "setting": "[22]", "value": "suppressed AKT activity"}, {"measurement": "p70s6k inhibition", "setting": "[23]", "value": "inhibits p70s6k"}, {"measurement": "phosphorylation of the ribosomal S6 protein", "setting": "[23]", "value": "reduced phosphorylation of the ribosomal S6 protein"}, {"measurement": "STAT3 phosphorylation on Serine 727", "setting": "[24]", "value": "not Serine 727"}, {"measurement": "STAT3 phosphorylation on Tyrosine 705", "setting": "[24]", "value": "decreases STAT3 phosphorylation on Tyrosine 705"}, {"measurement": "cell viability (MTT)", "setting": "[25]", "value": "reduced MDA-MB 468 cell viability"}, {"measurement": "PD-L1 expression", "setting": "[26]", "value": "did not"}, {"measurement": "blood concentration required to inhibit formation of plasmin and provide antifibrinolysis", "setting": "[27]", "value": "10 to 20", "unit": "µg/mL"}, {"measurement": "seizure risk", "setting": "[28]", "value": "risk of seizure"}, {"measurement": "non-melanoma skin cancer development", "setting": "[29]", "value": "reduced"}, {"measurement": "plasma MMP-9 and IL-6, skin plasmin, CC chemokine 2, macrophages, STAT3, cyclin D and VEGF-A", "setting": "[29]", "value": "suppresses increases"}, {"measurement": "plasmin protease activity", "setting": "[30]", "value": "directly inhibits plasmin protease activity"}, {"measurement": "p300 acetyltransferase activity", "setting": "[31]", "value": "inhibits p300 activity"}]}
